We go through 12 compounds from US20120220624A1, “PYRAZOLO [3,4-B] PYRIDIN-4-ONE KINASE INHIBITORS” (priority 2009, published 2012).

The test deals with T1, CDK5-p25 kinase (Homo sapiens, UniProt Q00535).
T1 construct: purchased Invitrogen PV4677
The test can be described thus: CDK5-p25 kinase enzymatic assay. It is filed as biochemical. To be noted: 0.3 nM CDK5-p25, 1.5 uM peptide, 5 uM ATP. As to the method:
CDK5-p25 kinase (Invitrogen PV4677) enzymatic activity was measured using electrophoretic separation and fluorescent detection to monitor phosphorylation of a fluorescently labeled histone H1-derived peptide substrate, FL29 (5-FAM-GGGPATPKKAKKL-CONH2, Caliper #760429)
First, 0.25 uL of serially diluted compound in DMSO at 100× concentration was transferred into each well of a 384-well polystyrene assay plate. To this was added 15 uL of a 1.67× enzyme solution (500 pM enzyme, 1 mM DTT (Sigma D9779), 1× reconstitution buffer with protease inhibitor (Caliper #700329 proprietary formulation)), followed by centrifugation for 1 min at 1000 rpm, and incubation for 5-15 min at room temperature to allow binding of compound to enzyme. To initiate the reaction, 10 uL of substrate/ATP mix (245 mM Hepes pH 7.5, 0.003% Brij 35, 0.004% Tween, 12.75 uM ATP, 3.75 uM FL29 peptide) were added to each well, followed by centrifugation at 1000 rpm for 1 min. The reaction was then incubated at room temperature for 30 min. Final assay conditions were: 0.3 nM CDK5-p25, 1.5 uM peptide, 5 uM ATP, 0.6 mM DTT, 1% DMSO, 98 mM HEPES pH 7.5.
After incubation, reactions were quenched by the addition of 45 uL Caliper termination solution (Caliper proprietary formula), followed by centrifugation at 1000 rpm for 1 min. Extent of reaction (percentage conversion of substrate to phosphorylated product) was then measured using the Caliper EZ II reader. Dose-response curves were created by plotting the inhibition of enzyme activity (normalized relative to vehicle treated and no ATP control reactions) as a function of the log of compound concentration. The curve was analyzed using a four parameter logistical fit to calculate IC50 values.

[1] abbreviates: X marks bin <50 nM, read-out: IC50 potency, <50 nM.
The mark [2] stands for this setting: X marks bin 100 nM-499 nM, read-out: IC50 potency, 100 nM-499 nM.
The mark [3] stands for this setting: X marks bin 50 nM-99 nM, read-out: IC50 potency, 50 nM-99 nM.
Setting [4] is: X marks bin 500 nM-3 μM, read-out: IC50 potency, 500 nM-3 μM.

Like-named read-outs stand apart in the source and are kept apart here.

T1 sequence (Q00535 whole entry): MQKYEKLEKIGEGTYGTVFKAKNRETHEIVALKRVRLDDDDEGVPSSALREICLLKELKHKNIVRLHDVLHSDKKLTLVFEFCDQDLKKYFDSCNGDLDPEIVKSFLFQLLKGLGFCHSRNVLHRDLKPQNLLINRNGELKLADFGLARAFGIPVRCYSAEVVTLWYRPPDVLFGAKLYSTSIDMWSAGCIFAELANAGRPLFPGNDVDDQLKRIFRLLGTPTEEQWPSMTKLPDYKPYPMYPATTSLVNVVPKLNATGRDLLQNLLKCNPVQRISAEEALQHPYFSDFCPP
T1 sequence (Q15078 99-307 partner limits assumed): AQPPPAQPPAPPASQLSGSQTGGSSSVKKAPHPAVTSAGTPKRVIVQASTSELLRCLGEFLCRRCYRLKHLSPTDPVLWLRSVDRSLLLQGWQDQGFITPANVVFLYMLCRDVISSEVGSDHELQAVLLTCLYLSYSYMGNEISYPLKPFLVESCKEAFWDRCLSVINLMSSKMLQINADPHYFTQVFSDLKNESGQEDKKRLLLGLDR

On to `O=c1cc(Cc2ccc3ccccc3c2)[nH]c2n[nH]c(C3CCC3)c12` [Example 1, 3-cyclobutyl-6-(2-naphthylmethyl)-2,7-dihydro-4H-pyrazolo[3,4-b]pyridin-4-one], for which the IC50 – broadly, the concentration that inhibits the measured activity by half – under setting [1] was less than 50 nM.

Turning to `O=c1cc(Cc2c(F)cccc2Cl)[nH]c2n[nH]c(C3CCC3)c12` [Example 2, 6-(2-chloro-6-fluorobenzyl)-3-cyclobutyl-2,7-dihydro-4H-pyrazolo[3,4-b]pyridin-4-one], the IC50 under setting [2] was in the range of 100 to 499 nM.

`O=c1cc(Cc2ccc(-c3ccccc3)cc2)[nH]c2n[nH]c(C3CCC3)c12` [Example 3, 6-(biphenyl-4-ylmethyl)-3-cyclobutyl-2,7-dihydro-4H-pyrazolo[3,4-b]pyridin-4-one]: the IC50 under setting [3] lay in the range of 50 to 99 nM.

With `CC(C)(C)c1ccc(Cc2cc(=O)c3c(C4CCC4)[nH]nc3[nH]2)cc1` [Example 4, 6-(4-tert-butylbenzyl)-3-cyclobutyl-2,7-dihydro-4H-pyrazolo[3,4-b]pyridin-4-one], the IC50 under setting [3] lay within 50 to 99 nM.

`O=c1cc(Cc2ccccc2-c2ccccc2)[nH]c2n[nH]c(C3CCC3)c12` [Example 5, 6-(biphenyl-2-ylmethyl)-3-cyclobutyl-2,7-dihydro-4H-pyrazolo[3,4-b]pyridin-4-one]: the IC50 under setting [2] was 100 to 499 nM.

As for `O=c1cc(Cc2ccc(Cl)c(Cl)c2)[nH]c2n[nH]c(C3CCC3)c12` [Example 6, 3-cyclobutyl-6-(3,4-dichlorobenzyl)-2,7-dihydro-4H-pyrazolo[3,4-b]pyridin-4-one], under setting [1], the half-maximal inhibitory concentration (IC50) was less than 50 nM.

As to `O=c1cc(CC2CCCCC2)[nH]c2n[nH]c(C3CCC3)c12` [Example 7, 3-cyclobutyl-6-(cyclohexylmethyl)-2,7-dihydro-4H-pyrazolo[3,4-b]pyridin-4-one], under setting [2], the IC50 was in the range of 100 to 499 nM.

As for `O=c1cc(Cc2cc(F)cc(Cl)c2)[nH]c2n[nH]c(C3CCC3)c12` [Example 8, 6-(3-chloro-5-fluorobenzyl)-3-cyclobutyl-2,7-dihydro-4H-pyrazolo[3,4-b]pyridin-4-one], the IC50 under setting [1] was less than 50 nM.

As for `O=c1cc(Cc2ccc3ccccc3c2)[nH]c2n[nH]c(C3CC(F)(F)C3)c12` [Example 9, 3-(3,3-difluorocyclobutyl)-6-(naphthalen-2-ylmethyl)-2,7-dihydro-4H-pyrazolo[3,4-b]pyridin-4-one], the IC50 under setting [4] was 500 to 3000 nM.

Take `O=c1cc(Cc2ccc3ccccc3c2)[nH]c2n[nH]c([C@H]3C[C@H](O)C3)c12` [Example 10, 3-(trans-3-hydroxycyclobutyl)-6-(naphthalen-2-ylmethyl)-2,7-dihydro-4H-pyrazolo[3,4-b]pyridin-4-one]: under setting [1], the IC50 was less than 50 nM.

With `O=c1cc(Cc2ccc3ccccc3c2)[nH]c2n[nH]c([C@H]3C[C@@H](O)C3)c12` [Example 11, 3-(cis-3-hydroxycyclobutyl)-6-(naphthalen-2-ylmethyl)-2,7-dihydro-4H-pyrazolo[3,4-b]pyridin-4-one], the IC50 under setting [4] is 500 to 3000 nM.

Consider `O=C1CC(c2[nH]nc3[nH]c(Cc4ccc5ccccc5c4)cc(=O)c23)C1` [Example 12, 6-(naphthalen-2-ylmethyl)-3-(3-oxocyclobutyl)-2,7-dihydro-4H-pyrazolo[3,4-b]pyridin-4-one], for which the IC50 under setting [1] is less than 50 nM.
